Results taken from article PMC11089204 (Frontiers in Pharmacology, 2024).
Where a name gives a salt, the structure may show the parent alone.

What was measured:
[1] = Pharmacokinetics and metabolites in mouse plasma after oral psilocybin; assay type: in vivo, C57BL/6J mice; conditions: for half-life / Cmax / Tmax: male, C57BL/6J, po; for half-life: mouse, plasma, read-out: elimination half-life t1/2 (mean ± SD) (converted); for Cmax: read-out: Cmax (mean ± SD); for Tmax: read-out: tmax (mean ± SD)
Procedure: C57BL/6J adult male mice (Janvier, Le Genest-Saint-Isle, France) were maintained in littermate pairs in standard cages (containing sawdust, a sleeping chamber, tissue paper, and a wood stick) with water and pellet food available ad libitium. The colony room was on a reversed light-dark cycle (dark phase 07:00 to 19:00) with temperature at 22°C and humidity at 50–60%. A total of 10 mice were dosed orally with either 3 mg/kg bodyweight psilocybin (n = 5) or saline solution (n = 5). Dosing and blood sampling were conducted between 09:00 and 13:00. The mouse was placed in a plastic restrainer with the tail protruding through a hole in the end of the tube. The tail was immersed in warm water for 1 min for vasodilation and then a small incision was made on the lateral tail surface near the distal tip. 50 μL of blood was massaged gently into an EDTA-coated capillary blood tube (Mircovette, Sarstedt, Nümbrecht, Germany). The first (baseline) blood sample was collected directly before compound administration via oral gavage and the mouse was then returned to the home cage. Further blood samples were collected at 15, 30, 60, and 120 min post-treatment. Each sample was drawn from the same incision site, with mice maintained in the home cage in the intervening periods. The blood samples were stored on ice and centrifuged for 10 min at 780 × g and 4°C. Subsequently, the plasma was transferred into cryotubes (Protein LoBind, Eppendorf) and stored at −80 °C until analysis. All procedures were conducted under a permit for animal experimentation (ZH038/2022) issued by the Veterinary Office Zurich in accordance with the Animal Protection Act (1978) of Switzerland. The use of psilocybin was authorized by the Federal Office of Public Health (FOPH).
Pharmacokinetic parameters were calculated using Phoenix WinNonlin software (version 8.1.0, Certara, Princeton, USA). The elimination half-life (t1/2, min) was assessed as t1/2 = ln(2)/λ, while the elimination constant was calculated by linear regression in the terminal elimination phase. The maximal plasma concentration (Cmax, ng/mL) and the time to reach this concentration (tmax, h) were direct read-outs of the graphical plots.

[2] = biological target: T1, recombinant MAO-B (Homo sapiens, UniProt P27338); experiment: Incubation with recombinant MAO-B enzymes; assay type: in vitro ADME
T1 construct: purchased Corning Life Sciences B.V
T1 sequence (P27338 1-520): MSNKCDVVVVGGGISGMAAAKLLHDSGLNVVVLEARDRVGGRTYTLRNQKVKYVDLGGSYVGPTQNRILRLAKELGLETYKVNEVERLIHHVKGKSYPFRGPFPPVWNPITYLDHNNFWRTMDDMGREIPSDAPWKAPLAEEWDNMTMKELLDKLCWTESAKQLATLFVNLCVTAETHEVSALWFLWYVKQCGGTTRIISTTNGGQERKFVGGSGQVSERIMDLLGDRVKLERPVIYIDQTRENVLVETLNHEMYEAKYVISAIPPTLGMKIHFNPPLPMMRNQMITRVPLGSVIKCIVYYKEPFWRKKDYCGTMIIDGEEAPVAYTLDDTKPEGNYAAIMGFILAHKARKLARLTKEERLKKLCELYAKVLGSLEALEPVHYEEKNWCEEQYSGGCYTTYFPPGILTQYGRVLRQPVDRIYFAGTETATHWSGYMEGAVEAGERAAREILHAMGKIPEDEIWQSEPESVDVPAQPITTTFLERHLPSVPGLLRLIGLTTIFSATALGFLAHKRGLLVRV
Procedure: (§1) Corning UltraPool human liver microsomes (HLM) 150 (20 mg/mL), human intestinal microsomes (HIM) pool (10 mg/mL) as well as recombinant human CYP enzymes (with P450 oxidoreductase, OR) including CYP1A2+OR (0.5 nmol), CYP2B6+OR (0.5 nmol), CYP2C8+OR (1.0 nmol), CYP2C9*1+OR (1 nmol), CYP2C19+OR (0.5 nmol), CYP2D6*1+OR (0.5 nmol), CYP2E1+OR + cytochrome b5 (1 nmol), CYP3A4+OR + cytochrome b5 (0.5 nmol), MAO-A (5 mg/mL), MAO-B (5 mg/mL), and UGT1A10 (5 mg/mL) were purchased from Corning Life Sciences B.V (Amsterdam, Netherlands). All microsomes and recombinant enzyme solutions were aliquoted and stored at −80 °C until further use.
(§2) The MAO inhibition assay was based on the assay described in section 2.5.1 and performed identically if not otherwise stated.

[3] = biological target: T2, MAO-A in human liver microsomes (HLM) (Homo sapiens, UniProt P21397); experiment: Monoamine oxidase A inhibition in human liver microsomes; assay type: in vitro ADME; conditions: 5 μM kynuramine, t = 240 min
T2 construct: tissue Corning Life Sciences B.V; host or cells: pooled human liver microsomes
T2 sequence (P21397 1-527): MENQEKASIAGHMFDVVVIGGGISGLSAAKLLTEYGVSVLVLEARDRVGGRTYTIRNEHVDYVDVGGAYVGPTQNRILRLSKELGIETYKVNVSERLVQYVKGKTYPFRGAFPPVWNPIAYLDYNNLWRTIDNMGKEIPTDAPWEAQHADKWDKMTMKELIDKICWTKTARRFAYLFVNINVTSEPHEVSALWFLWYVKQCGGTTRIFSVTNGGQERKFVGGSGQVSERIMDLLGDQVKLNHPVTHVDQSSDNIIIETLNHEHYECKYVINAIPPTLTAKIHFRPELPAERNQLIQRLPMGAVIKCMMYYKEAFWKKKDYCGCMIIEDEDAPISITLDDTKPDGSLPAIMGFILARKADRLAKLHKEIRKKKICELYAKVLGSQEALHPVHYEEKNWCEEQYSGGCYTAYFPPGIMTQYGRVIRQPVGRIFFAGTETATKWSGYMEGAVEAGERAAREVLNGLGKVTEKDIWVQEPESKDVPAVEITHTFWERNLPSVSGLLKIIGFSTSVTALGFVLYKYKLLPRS

[4] = biological target: T3, recombinant MAO-A (Homo sapiens, UniProt P21397); experiment: Incubation with recombinant MAO-A enzymes; assay type: in vitro ADME
T3 construct: purchased Corning Life Sciences B.V
T3 sequence (P21397 1-527): T2 sequence (P21397 1-527)
Procedure: as §1, §2

[5] = test system: human intestinal microsomes (HIM); experiment: Glucuronidation with human intestinal microsomes; assay type: in vitro ADME; conditions: HIM
Procedure: as §1, with “use. Co-factors including NADPH regenerating system solution A (25 mM NADP+, 66 mM glucose-6-phosphate, and 66 mM MgCl2 in water), NADPH regenerating system solution B (40 U/mL glucose-6-phosphate dehydrogenase in 5 mM sodium citrate), UGT reaction mix solution A (25 mM uridine 5′-diphospho-glucuronic acid in water), and UGT reaction mix solution B (250 mM Tris-HCl, 40 mM MgCl2, and 0.125 mg/mL alamethicin in water) were also obtained from Corning Life Sciences B.V.” for “use.”
The assay described in section 2.5.1 was adjusted to suit the glucuronidation system. […] HLM were diluted as described in section 2.5.1, while HIM or UGT1A10 enzymes were diluted 1:40 (end concentration […] and 0.125 mg/mL, respectively) in the reaction mix. Sampling time points were adjusted to 0, 15, 30, 60, 90, 120, 180, and 240 min.

[6] = biological target: T4, recombinant human UGT1A10 (Homo sapiens, UniProt Q9HAW8); experiment: Glucuronidation with recombinant UGT1A10; assay type: in vitro ADME
T4 construct: purchased Corning Life Sciences B.V
T4 sequence (Q9HAW8 26-530): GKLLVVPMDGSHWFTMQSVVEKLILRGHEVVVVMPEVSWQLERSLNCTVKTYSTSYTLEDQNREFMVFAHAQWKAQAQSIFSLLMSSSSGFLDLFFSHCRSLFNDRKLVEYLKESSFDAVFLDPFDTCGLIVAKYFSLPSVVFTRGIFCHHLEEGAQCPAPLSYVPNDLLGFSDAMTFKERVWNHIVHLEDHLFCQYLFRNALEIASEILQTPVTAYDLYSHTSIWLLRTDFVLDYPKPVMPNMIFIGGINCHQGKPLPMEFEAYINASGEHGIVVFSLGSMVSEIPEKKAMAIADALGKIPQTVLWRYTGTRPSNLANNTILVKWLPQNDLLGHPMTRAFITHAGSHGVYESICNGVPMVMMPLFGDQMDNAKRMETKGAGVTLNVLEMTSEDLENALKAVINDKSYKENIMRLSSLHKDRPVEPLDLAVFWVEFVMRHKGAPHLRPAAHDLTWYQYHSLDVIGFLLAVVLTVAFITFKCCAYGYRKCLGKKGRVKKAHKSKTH
Procedure: as §1
The assay described in section 2.5.1 was adjusted to suit the glucuronidation system.

[7] = ref Holze et al., 2022a, cited from earlier work
[8] = Metabolites in human plasma after oral psilocybin (reanalysed study samples); conditions: 30 mg psilocybin p.o., n = 5
[9] = 3 mg/kg, mouse plasma, 3 mg/kg psilocybin p.o., n = 5
[10] = mouse plasma, 3 mg/kg psilocybin p.o., n = 5
[11] = 1,000 nM DMT, rec. MAO-B, t = 240 min
[12] = 1,000 nM DMT, rec. MAO-A, t = 240 min

## O=C(O)Cc1c[nH]c2cccc(OC3O[C@H](C(=O)O)[C@@H](O)[C@H](O)[C@H]3O)c12 (some centres unmarked) [4-HIAA-glucuronide]
[1]; [9]
  half-life: 82.8 ± 16.2 min
[1]; [10]
  Cmax: 30 ± 6.7 ng/mL
  Tmax: 27 ± 6.6 min

## Oc1ccnc2ccccc12 [4-HQ, 4-hydroxyquinoline]
[2]; 5 μM kynuramine, rec. MAO-B, t = 240 min
  4-HQ concentration formed from kynuramine: 4,692 ± 891 nM
[3]; HLM with clorgyline
  4-HQ concentration formed from kynuramine: 347 ± 67 nM
[3]; HLM
  4-HQ concentration formed from kynuramine: 1,974 ± 302 nM
[4]; 5 μM kynuramine, rec. MAO-A, t = 300 min
  4-HQ concentration formed from kynuramine: 2,694 ± 264 nM

## CN(C)CCc1c[nH]c2ccccc12 [DMT, N,N-dimethyltryptamine]
[2]; 1,000 nM DMT, rec. MAO-B, t = 0 min
  DMT concentration: 940 ± 47 nM
[2]; [11]
  DMT concentration: 816 ± 56 nM
[2]; rec. MAO-B with R-deprenyl, t = 0 min
  DMT concentration: 954 ± 73 nM
[2]; rec. MAO-B with R-deprenyl, t = 240 min
  DMT concentration: 1,008 ± 58 nM
[4]; 1,000 nM DMT, rec. MAO-A, t = 0 min
  DMT concentration: 907 ± 31 nM
[4]; [12]
  DMT concentration: 110 ± 29 nM
[4]; rec. MAO-A with clorgyline, t = 0 min
  DMT concentration: 915 ± 11 nM
[4]; rec. MAO-A with clorgyline, t = 240 min
  DMT concentration: 853 ± 69 nM

## O=C(O)Cc1c[nH]c2ccccc12 [IAA, indole-3-acetic acid]
[2]; [11]
  IAA concentration formed from DMT: 11.5 ± 4.5 nM
[4]; [12]
  IAA concentration formed from DMT: 30.3 ± 4.2 nM

## O=C1Nc2c(O)cc(Cl)cc2[C@@](C#CC2CC2)(C(F)(F)F)O1 [OH-efavirenz, 8-hydroxy-efavirenz]
[5]; over 240 min, control condition
  OH-efavirenz glucuronidated: 99%
[5]; t = 0
  OH-efavirenz peak area: 45,300 ± 5,766 counts
[5]; t = 240 min
  OH-efavirenz peak area: 470 ± 394 counts
[6]; rec. UGT1A10, over 240 min, control condition
  OH-efavirenz glucuronidated: 98%
[6]; rec. UGT1A10, t = 0
  OH-efavirenz peak area: 41,700 ± 10,936 counts
[6]; rec. UGT1A10, t = 240 min
  OH-efavirenz peak area: 1,007 ± 155 counts

## NCCC(=O)c1ccccc1N [kynuramine, kynuramine dihydrobromide]
[2]; rec. MAO-B, t = 0 min
  kynuramine signal: 82,853 ± 11,336 counts
[2]; rec. MAO-B, t = 240 min
  kynuramine signal: 9,533 ± 8,311 counts
[4]; rec. MAO-A, t = 0 min
  kynuramine signal: 135,200 ± 23,816 counts
[4]; rec. MAO-A, t = 300 min
  kynuramine signal: 48,503 ± 12,251 counts

## CN(C)CCc1c[nH]c2cccc(OC3O[C@H](C(=O)O)[C@@H](O)[C@H](O)[C@H]3O)c12 (some centres unmarked) [psilocin-O-glucuronide]
[1]; [9]
  half-life: 58.2 ± 3.6 min
[1]; [10]
  Cmax: 521 ± 57 ng/mL
  Tmax: 21 ± 8.4 min
[1]; mouse plasma, 3 mg/kg psilocybin p.o.
  mean Cmax relative to psilocin (higher): 2.6 fold
[1]; mouse plasma, 3 mg/kg psilocybin p.o., n = 5, 3 mg/kg
  elimination half-life t1/2 (mean ± SD): ~60 min
[1]; mouse versus human
  half-life in mice relative to humans (lower): around 4 fold
[7]; clinical studies
  plasma concentrations of conjugated psilocin relative to free psilocin (higher): around 4 fold
[7]; humans, oral psilocybin, within 24 h (time not stated for 4-HIAA)
  fraction of administered psilocybin dose excreted in urine: Approximately 20%
[7]; humans
  half-life in humans: around 4 h

## CN(C)CCc1c[nH]c2cccc(OP(=O)(O)O)c12 [psilocybin]
[1]; 3 mg/kg psilocybin p.o.
  detection in mouse plasma: did not detect
[8]
  detection in human plasma: did not detect
